From patent US9522935B2, “Commands and method of treating cancer via RHO pathway” (priority 2013, dated 2016)

System: HepG2 cells
Experiment: Nude mouse model of hepatocellular carcinoma (HepG2), growth rate
Format: in vivo, nude mice
Settings: nude mouse model, 75 mg/kg, twice a day, versus blank carrier control
Protocol: In contrast, LD30 (1 mg/kg/time, twice a day) reduced the growth rate of HepG2 cells by about 63%, with statistical significance (p<0.05) when compared with the ethanol control.
LD030 was also compared with Nexavar for their effects on the growth rate of HepG2 cells.
A further study was conducted on liver cancer cell line in nude mice (HepG2), where Nexavar's dosage was 30 mg/kg, twice a day and LD030's dosage was 1 mg/kg, twice a day along with a blank control and a combination of LD030 and Nexavar. The result is shown in FIG. 21 where Nr stands for Nexavar. […] When compared with the blank, LD030's effect is statistically significant (p<0.05).

CNC(=O)c1cc(Oc2ccc(NC(=O)Nc3ccc(Cl)c(C(F)(F)F)c3)cc2)ccn1 [Nexavar, reference compound]
reduction of growth rate of HepG2 cells: about 80%
